Source: patent publication US20240150396A1 (The Texas A&M University System, priority 2021, published 2024)
Several values for one entry are separate records, joined by “and”; a condition that tells them apart may be missing. Identical values can stand only once. Like-named read-outs stand apart in the source and are kept apart here.

Tests used:
CYPs 3A4, 2D6 and 2C9 [1] = conditions: human, 4 h, 0.5 mM, pH 7.5
[2] = system: T. b. brucei bloodstream forms; assay: Growth of axenic cultures of T. b. brucei bloodstream forms (BSFs)
cruzain = cruzain (Trypanosoma cruzi, UniProt P25779); assay: biochemical; conditions: for Ki: pH 7.5
Summary of the method: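 Fluorogenic assay at 25 °C following AMC release (ex 360/em 460 nm), with typically 0.2 nM cruzain and 10% DMSO, at pH 7.5 or 5.5 buffer with 5 mM DTT.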

[3] = system: T. cruzi (Ca-I/72) in C2C12 murine cardiomyoblasts; assay: T. cruzi-infected murine cardiomyoblasts (C2C12); type: cell-based, Trypanosoma cruzi
Summary of the method: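 C2C12 mouse cardiomyoblasts infected with T. cruzi Ca-I/72 (10^3 and 10^4 parasites) and exposed to 3-fold serial dilutions of inhibitor from a 10 μM maximum, 48 h at 37° C. After PFA fixation and DAPI staining, automated imaging quantified parasites and host cells, giving EC50 and host CC50.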

[4] = system: SARS-CoV-2 in Vero E6 cells; assay: Anti-CoV-2 activity in Vero E6 cells; type: cell-based
[5] = system: SARS-CoV-2 in A549/ACE2 cells; type: cell-based; conditions: read-out: Anti-CoV-2 EC50 A549/ACE2 Cells
[6] = system: esterase from porcine liver; assay: Hydrolysis of SMAI prodrugs by porcine esterase; type: in vitro ADME; conditions: for half-life of conversion to compound 36: porcine esterase, buffer pH 7.5, 37° C.
Procedure: Evaluation of SMAI Prodrugs. Esterase from porcine liver was obtained as an ammonium sulfate suspension (Sigma-Aldrich, E2884, 10 U/μL). Compounds 37-39 in 100% (v/v) DMSO solutions were diluted by 10-fold into cruzain assay buffer to make 1 mL-samples, each containing 2 mM compound. For the experimental sample, 4 μL of esterase suspension was added to the reaction mixtures (40 U/mL), which was immediately placed on a low-speed orbital shaker in a 37° C. incubator. In the meantime, a negative control (lacking esterase) and a blank control (buffer only) were included. Aliquots (140 μL) of the reaction mixtures were removed at 0, 15, 30, 60, 120, 180, and 300 min, and reactions were quenched by the addition of MeCN (260 μL). The resulting solution was vortexed, followed by centrifugation to precipitate the protein, and the resulting compounds in the supernatant were analyzed by HPLC-MS with detection at 270 nm.
Rates of de-acylation reactions of SMAI prodrugs 37-39 were obtained upon evaluation of the first-order loss of reagent as fitted to eq. 6, in which A0 and C are the initial and final fraction of unhydrolyzed compound, respectively, k is the pseudo-first order rate constant, from which the half-life was t1/2=ln 2/k.

[7] = system: T. b. brucei bloodstream forms; conditions: Ref. 25; read-out: EC50 in T. b. brucei BSFs; cited from earlier work
human cathepsin L = human cathepsin L (Homo sapiens (Human), UniProt P07711); assay: Human cathepsin L inhibition, Z-FR-AMC assay; type: biochemical; conditions: pH 5.5, 25° C., 10% DMSO; read-out: Ki* Human Cathepsin L
Summary of the method: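 Recombinant human enzymes were assayed at 25°C in sodium acetate pH 5.5 with 1 mM CHAPS, 1 mM EDTA, 5 mM DTT and 10% DMSO final, using the fluorogenic substrate Z-FR-AMC. AMC release (ex 360/em 460 nm) was followed over 30–60 min and converted to rates (μM/s) via an AMC standard curve.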

human cathepsin B = human cathepsin B (Homo sapiens (Human), UniProt P07858); assay: Human cathepsin B inhibition, Z-FR-AMC assay; type: biochemical; conditions: pH 5.5, 25° C., 10% DMSO; read-out: Ki* Human Cathepsin B
Procedure: Recombinant human cathepsins B and L were purchased from Millipore Sigma and used without further treatment. The solid proteins were dissolved into a solution of 50 mM sodium acetate (pH 5.5), 1 mM EDTA, 1 mM CHAPS, 10% (v/v) DMSO, and 5 mM DTT to final concentrations of […] in 20-mL aliquots, and stored at −80° C. until needed. These samples were then diluted into the same buffer to concentrations of −100 nM, and these dilutions were stored at 4° C. and used daily until depletion.
For assays of cathepsin L and B, inhibitors were evaluated in 0.25-mL reaction mixtures containing a buffer of sodium acetate (pH 5.5), 1 mM CHAPS, 1 mM Na2EDTA, and 5 mM DTT at 25° C. The fluorogenic substrate Cbz-Phe-Arg-7-amino-4-methyl-coumarin (Z-FR-AMC) was dissolved in 100% DMSO, as were all inhibitors, and aliquots of both substrates and inhibitors were added to reaction mixtures to final concentrations of DMSO of 10% (v/v). […] Formation of the fluorescent product AMC was monitored over 30-60-minute time courses for reaction mixtures in 96-well black microplates (Corning Costar®). Rates of peptidolysis of the dipeptide-AMC substrate(s) were measured on either a SpectraMax M5 (Molecular Devices) or a Synergy HTX (Biotek, Wisnooki, VT) microplate reader with λex=360 nm, λem=460 nm in ≥8-sec intervals. Control samples excluded substrate. The measured relative fluorescence units (RFUs) of generated AMC were converted to reaction rates of μM/s by use of a standard curve of known AMC concentrations obtained for both plate readers.

human cathepsin S = human cathepsin S (Homo sapiens (Human), UniProt P25774); assay: Human cathepsin S inhibition; type: biochemical; conditions: pH 5.5, 25° C., 10% DMSO
Procedure: Cruzain inhibitors were added at seven concentrations and one fixed concentration of Cbz-Phe-Arg-AMC, and time courses of AMC formation were analyzed as with cruzain.

[8] = system: T. b. brucei procyclic forms; assay: Growth of axenic cultures of T. b. brucei procyclic forms (PCFs); type: cell-based, Trypanosoma brucei brucei; conditions: Trypanosoma brucei, axenic culture; read-out: EC50 T. b. brucei PCF
human dermal fibroblasts = assay: Human cell toxicity, resazurin viability; type: cell-based; conditions: human dermal fibroblasts; read-out: Human Cell Cytotoxicity CC50
Procedure: Primary human dermal fibroblast (HDF) cells were used to evaluate human cell toxicity of cruzain inhibitors. HDF cells were plated in a 384-well plate at 2400 cells per well (62,000 cells mL^−1). Inhibitors in 100% DMSO were added in duplicate to final concentrations of 0.001-0.1 mM and 1% DMSO (v/v) with 1% DMSO as a control sample, and cells were cultured at 37° C. for 48 h, followed by the addition of resazurin. Cell viability was then assessed by reading of fluorescence (excitation/emission: 544 nm/590 nm) after an additional 24 h of incubation.

[9] = Host cell cytotoxicity in the T. cruzi infection model; type: cell-based, mouse; conditions: mouse; host cardiomyoblasts; read-out: C2C12 Cytotoxicity CC50
Procedure: The plates were incubated at 37° C. for 48 h, and the wells were fixed with 2% paraformaldehyde in PBS and stained with 5 μg mL-1 4,6-diamidino-2-phenylindole. After at least 30 min of incubation at room temperature in the dark, the plates were read in an automated microscope, ImageXpress Micro XL (Molecular Devices), and the images were analyzed by custom-built software to quantify and assess viability of the parasites, as well as the host cells independently. The compilation of data was used to calculate the antiparasitic activity (EC50) and host cytotoxicity (CC50).
T. cruzi infection was evaluated in C2C12 murine cardiomyoblast cells. […] The wells were fixed with 2% PFA in PBS, and stained by 5 μg/ml of DAPI. After >30 min of incubation in a dark environment, the plates were read on an ImageXpress MicroXL microscope (Molecular Devices). The images were analyzed to quantify parasites as well host cells.

[10] = Thiolation of inhibitors with glutathione, LCMS; type: physicochemical; conditions: 1 mM glutathione, 0.5 mM compound, Tris pH 8.0, 10% DMSO, room temperature
Procedure: Samples were analyzed by HPLC-MS (as described above) by injecting 0.01 mL aliquots onto a Luna […] C18(2) 100 Å, 4.6 mm, 50 mm column (Phenomenex) using the HPLC method described in the chemistry section at 0-6 h time points. […] Integration of the chromatographic peaks of the inhibitors and their GSH adducts at each time point was used to determine the rate of GSH adduct formation.

CYPs 3A4, 2D6 and 2C9 [11] = assay: Stability of acetal prodrugs to CYPs; conditions: CYP 3A4, 2D6, 2C9, NADPH-regenerating system, up to 4 h
[12] = system: T. cruzi (Ca-I/72) in C2C12 murine cardiomyoblasts; conditions: antichagasic activity, Ref. 55; cited from earlier work
[13] = Detection of aldehyde content using phenylhydrazine; type: physicochemical; conditions: 1 mM phenylhydrazine
Procedure: Detection of Aldehyde Content Using Phenylhydrazine. In a 96-well clear microplate, compounds 52 and 36 in DMSO solutions, or pure DMSO as a control, were diluted into the above NMR buffer without addition of DTT to make 250 μL-samples, each containing 0.2 mM of compounds and 10% DMSO (v/v). Upon addition of 1M phenylhydrazine (0.25 μL), the formation of phenylhydrazone in these wells were continuously monitored for 2 hours by measuring UV absorbance at the maximal wavelength of 282 nm.

[14] = read-out: EC50 T. b. brucei BSF, axenic culture
[15] = obtained >10 minutes following initiation of reaction by addition of enzyme, read-out: Ki* Cruzain
[16] = C2C12 murine cardiomyoblasts, read-out: EC50 T. cruzi-infected cardiomyoblasts
[17] = apparent tight-binding inhibition constant, 25° C., read-out: Ki*

Chain of cruzain (P25779 123-467 limits assumed): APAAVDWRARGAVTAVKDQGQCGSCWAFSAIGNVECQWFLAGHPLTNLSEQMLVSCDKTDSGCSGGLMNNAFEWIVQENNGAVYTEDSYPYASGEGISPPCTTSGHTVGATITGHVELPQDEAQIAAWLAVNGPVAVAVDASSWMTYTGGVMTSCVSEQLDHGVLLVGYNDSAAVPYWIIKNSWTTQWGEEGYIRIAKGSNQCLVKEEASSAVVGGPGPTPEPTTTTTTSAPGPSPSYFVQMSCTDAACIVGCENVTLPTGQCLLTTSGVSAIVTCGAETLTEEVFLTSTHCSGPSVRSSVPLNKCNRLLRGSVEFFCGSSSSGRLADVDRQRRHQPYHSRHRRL
Chain of human cathepsin L (P07711 114-333): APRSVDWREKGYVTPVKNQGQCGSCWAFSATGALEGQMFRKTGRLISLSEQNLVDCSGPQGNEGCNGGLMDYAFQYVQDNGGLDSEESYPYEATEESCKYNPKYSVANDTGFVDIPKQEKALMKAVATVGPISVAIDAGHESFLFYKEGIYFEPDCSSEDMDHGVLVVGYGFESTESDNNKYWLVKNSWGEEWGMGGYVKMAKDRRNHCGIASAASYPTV
Chain of human cathepsin S (P25774 115-331): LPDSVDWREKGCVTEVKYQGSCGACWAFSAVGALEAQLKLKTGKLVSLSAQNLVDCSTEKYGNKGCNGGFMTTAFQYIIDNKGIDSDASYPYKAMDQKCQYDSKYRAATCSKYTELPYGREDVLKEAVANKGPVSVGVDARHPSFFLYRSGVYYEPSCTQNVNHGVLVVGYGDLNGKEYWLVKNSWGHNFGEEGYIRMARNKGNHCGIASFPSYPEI

Structure (SMILES) | EC50 [2, 14] [µM] | Ki (cruzain; [15]) [µM] | EC50 [4] [µM] | EC50 [5] [µM] | half-life of conversion to compound 36 [6] [min] | Ki (cruzain; [17]) [µM] | other results
CCOC1Oc2ccccc2C[C@@H]1NC(=O)[C@H](Cc1ccccc1)NC(=O)N1CCN(C)CC1 (stereo partly drawn) [Compound 40, N-((2S)-1-(((3S)-2-ethoxychroman-3-yl)amino)-1-oxo-3-phenylpropan-2-yl)-4-methylpiperazine-1-carboxamide] | 12 ± 0.1 |  |  |  |  |  | transformation to 36 by CYPs (CYPs 3A4, 2D6 and 2C9 [1]): no transformation to 36 was observed; EC50 ([2]; Trypanosoma brucei, read-out: EC50 T. b. brucei BSF, axenic culture): 11 to 14 µM
CC(C)C(=O)OC1Oc2ccccc2C[C@@H]1NC(=O)[C@H](Cc1ccccc1)NC(=O)N1CCN(C)CC1 (stereo partly shown) [Compound 39] | 4 ± 0.2 | > 5 | 4 | 0.31 | 16 |  | EC50 [3, 16]: 14 ± 6 µM
N=C(N)c1ccc(/N=N/Nc2ccc(C(=N)N)cc2)cc1 [diminazene] |  |  |  |  |  |  | EC50 [7]: 0.99 µM
O=C(N[C@@H](Cc1ccccc1)C(=O)N[C@H](/C=C/c1ncccn1)Cc1ccccc1)OCc1ccccc1 [Compound 7, Benzyl ((S)-1-Oxo-3-phenyl-1-(((S,E)-1-phenyl-4-(pyrimidin-2-yl)-but-3-en-2-yl)amino)propan-2-yl)carbamate] |  |  |  |  |  | 0.38 | Ki (cruzain; Ki* Cruzain, obtained >10 minutes following initiation of reaction by addition of enzyme): 0.12 to 0.4 µM and 0.31 µM; Ki (cruzain; apparent initial inhibition constant, 25° C., read-out: Ki): 28 ± 1 µM; k4 (cruzain; conversion of EI* back to EI, from kobs replot or recovery after preincubation and dilution): 0.0018 ± 0.0003 s⁻¹; Ki (human cathepsin L): 1.1 ± 0.1 µM; Ki (human cathepsin B): 32 ± 3 µM; Ki (human cathepsin S): 0.37 ± 0.02 µM; EC50 [8]: 5 to 15 µM; CC50 (human dermal fibroblasts): > 100 µM; CC50 at 48 h [9]: > 10 µM; Rate of Thiolation, k [10]: Negligible
CC(C)OC1Oc2ccccc2C[C@@H]1NC(=O)[C@H](Cc1ccccc1)NC(=O)N1CCN(C)CC1 (stereo partly shown) [Compound 41] | 14 ± 0.9 | > 5 | > 20 | 5 |  | > 5 | transformation to 36 by CYPs (CYPs 3A4, 2D6 and 2C9 [11]): no transformation to 36 was observed
CCC(=O)OC1Oc2ccccc2C[C@@H]1NC(=O)[C@H](Cc1ccccc1)NC(=O)N1CCN(C)CC1 (stereo partly shown) [Compound 38] | 3.1 ± 0.2 | > 5 | 2.5 | 0.62 | 24 |  | 
O=C(Cn1ccnc1[N+](=O)[O-])NCc1ccccc1 [benznidazole, reference compound] |  |  |  |  |  |  | EC50 ([3]; Trypanosoma cruzi, C2C12, read-out: EC50 T. cruzi-infected cardiomyoblasts): 4 ± 2 µM; LD50 [12]: 1.5 µM
CN1CCN(C(=O)N[C@@H](Cc2ccccc2)C(=O)N[C@H](C=O)CCc2ccccc2)CC1 [Compound 52, 4-Methyl-N—((S)-1-oxo-1-(((S)-1-oxo-4-phenylbutan-2-yl)amino)-3-phenylpropan-2-yl)piperazine-1-carboxamide] |  | 0.0005 ± 0.0002 |  |  |  |  | residence time (cruzain): 45 min; kobs of phenylhydrazone formation ([13]; 0.2 mM compound): (2.61±0.05)×10^−4 s^−1; free aldehyde by phenylhydrazine treatment ([13]; aqueous buffer, 2 hours): completely converted to phenylhydrazone
CC(=O)OC1Oc2ccccc2C[C@@H]1NC(=O)[C@H](Cc1ccccc1)NC(=O)N1CCN(C)CC1 (stereo partly drawn) [Compound 37, (3S)-3-((S)-2-(4-methylpiperazine-1-carboxamido)-3-phenylpropanamido)chroman-2-yl acetate] | 3.7 | ~1 | 2.5 | 0.31 | 48 | 1 | EC50 [3, 16]: 13 ± 2 µM; degradation in buffer without esterase ([6]; over 3 h, pH 7.5): about 10%
